Results on 28 compounds are retold here after ChEMBL document CHEMBL4387742, “Naturally occurring biflavonoids with amyloid β aggregation inhibitory activity for development of anti-Alzheimer agents” (Bioorg Med Chem Lett, 2019).

T1 sequence (P05067 whole entry): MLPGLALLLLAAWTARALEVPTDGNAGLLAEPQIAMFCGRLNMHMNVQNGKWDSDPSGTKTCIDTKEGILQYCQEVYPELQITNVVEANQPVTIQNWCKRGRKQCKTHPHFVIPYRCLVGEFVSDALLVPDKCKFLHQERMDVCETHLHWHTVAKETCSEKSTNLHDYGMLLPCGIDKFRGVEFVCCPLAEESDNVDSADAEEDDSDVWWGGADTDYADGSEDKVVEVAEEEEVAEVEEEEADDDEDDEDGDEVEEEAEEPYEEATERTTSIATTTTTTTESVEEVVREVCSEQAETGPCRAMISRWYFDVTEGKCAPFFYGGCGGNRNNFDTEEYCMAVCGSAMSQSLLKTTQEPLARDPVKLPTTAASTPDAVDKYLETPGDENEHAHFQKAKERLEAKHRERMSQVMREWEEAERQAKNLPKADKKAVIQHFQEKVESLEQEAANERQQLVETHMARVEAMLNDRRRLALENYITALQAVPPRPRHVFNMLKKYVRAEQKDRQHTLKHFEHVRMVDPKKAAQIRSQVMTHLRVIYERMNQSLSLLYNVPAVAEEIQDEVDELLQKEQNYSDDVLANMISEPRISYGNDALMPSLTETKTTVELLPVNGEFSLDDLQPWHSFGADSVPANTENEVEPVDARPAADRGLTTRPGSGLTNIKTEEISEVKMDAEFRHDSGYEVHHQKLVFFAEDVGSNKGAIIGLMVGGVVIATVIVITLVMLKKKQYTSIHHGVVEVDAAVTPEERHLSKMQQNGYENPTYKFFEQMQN

One assay concerns the target T1, Amyloid-beta precursor protein (Homo sapiens, UniProt P05067). The experiment in a line: Inhibition of amyloid beta (1 to 42) (unknown origin) assessed as reduction in aggregation at 50 uM by ThT fluorescence assay.
With `COc1ccc(-c2cc(=O)c3c(O)cc(O)c(-c4cc(-c5cc(=O)c6c(O)cc(OC)cc6o5)ccc4OC)c3o2)cc1` [SCIADOPITISIN], the inhibition came to 44%.

For the next assay, the target named is T1, Amyloid-beta precursor protein. The experiment in a line: Inhibition of human amyloid beta (1 to 40) assessed as reduction in aggregation measured after 24 hrs by ThT fluorescence assay.
`COc1ccc(-c2cc(=O)c3c(O)cc(OC)c(-c4cc(-c5cc(=O)c6c(O)cc(OC)cc6o5)ccc4OC)c3o2)cc1`: the IC50 is more than 50 µM. Take `COc1cc(O)c2c(=O)cc(-c3ccc(OC)c(-c4c(O)cc(O)c5c(=O)cc(-c6ccc(O)cc6)oc45)c3)oc2c1` [GINKGETIN]: the IC50 is 13.2 µM.

With `COc1cc(O)c2c(=O)cc(-c3ccc(O)cc3)oc2c1-c1c(OC)cc(O)c2c(=O)cc(-c3ccc(O)cc3)oc12`, the IC50 came to 17.3 µM. Still for that read-out and setting: under `COc1ccc(-c2cc(=O)c3c(O)cc(OC)c(-c4c(OC)cc(O)c5c(=O)cc(-c6ccc(OC)cc6)oc45)c3o2)cc1` stands more than 50 µM. As to `COc1ccc(-c2cc(=O)c3c(O)c(Oc4ccc(-c5cc(=O)c6c(O)cc(O)cc6o5)cc4)c(OC)cc3o2)cc1`, the IC50 is more than 50 µM. `COc1ccc(-c2cc(=O)c3c(O)cc(O)c(-c4cc(-c5cc(=O)c6c(O)cc(O)cc6o5)ccc4O)c3o2)cc1` [PODOCARPUSFLAVONE A]: the IC50 was 4.9 µM. The same measure, in the same setting: under `COc1ccc(-c2cc(=O)c3c(O)cc(O)cc3o2)cc1-c1c(O)cc2oc(-c3ccc(O)cc3)cc(=O)c2c1O` stands more than 50 µM; under `COc1cc(O)c2c(=O)cc(-c3ccc(O)c(-c4c(O)cc(O)c5c(=O)cc(-c6ccc(O)cc6)oc45)c3)oc2c1` [SEQUOIAFLAVONE], 4.9 µM. Regarding `COc1ccc(-c2cc(=O)c3c(O)cc(OC)c(-c4cc(-c5cc(=O)c6c(O)cc(O)cc6o5)ccc4OC)c3o2)cc1` [KAYAFLAVONE], the IC50 was more than 50 µM. Still for that read-out and setting: to `O=c1cc(-c2ccc(Oc3c(O)cc4oc(-c5ccc(O)cc5)cc(=O)c4c3O)cc2)oc2cc(O)cc(O)c12` [HINOKIFLAVONE] belongs 9.5 µM. For the compound `COc1cc2oc(-c3ccc(O)cc3)cc(=O)c2c(O)c1-c1c(O)cc(O)c2c(=O)cc(-c3ccc(O)cc3)oc12`, the half-maximal inhibitory concentration (IC50) is 13 µM. As for `COc1ccc(-c2cc(=O)c3c(O)cc(OC)c(-c4cc(-c5cc(=O)c6c(O)cc(O)cc6o5)ccc4O)c3o2)cc1` [7'',4'''-dimethylamentoflavone], the concentration for half-maximal inhibition (IC50) is 20.1 µM. On the same count and under the same terms, under `O=c1cc(-c2ccc(O)c(-c3c(O)cc(O)c4c(=O)cc(-c5ccc(O)cc5)oc34)c2)oc2cc(O)cc(O)c12` [AMENTOFLAVONE] stands 4.8 µM. Same read-out and setting: under `COc1ccc(-c2cc(=O)c3c(O)c(Oc4ccc(-c5cc(=O)c6c(O)cc(O)cc6o5)cc4)c(O)cc3o2)cc1` stands more than 50 µM; under `COc1ccc(-c2cc(=O)c3c(O)cc(O)c(-c4c(OC)cc5oc(-c6ccc(O)cc6)cc(=O)c5c4O)c3o2)cc1`, 15.9 µM; under `COc1ccc(-c2cc(=O)c3c(O)cc(O)cc3o2)cc1-c1c(O)cc(O)c2c(=O)cc(-c3ccc(O)cc3)oc12` [BILOBETIN], 4.7 µM.

For the compound `COc1ccc(-c2cc(=O)c3c(O)cc(OC)c(-c4cc(-c5cc(=O)c6c(O)cc(OC)cc6o5)ccc4O)c3o2)cc1` [HEVEAFLAVONE], the IC50 was more than 50 µM. On to `COc1ccc(-c2cc(=O)c3c(O)cc(O)cc3o2)cc1-c1c(OC)cc(O)c2c(=O)cc(-c3ccc(O)cc3)oc12`, for which the IC50 was more than 50 µM. In the case of `COc1cc2oc(-c3ccc(O)cc3)cc(=O)c2c(O)c1-c1cc(-c2cc(=O)c3c(O)cc(O)cc3o2)ccc1O`, the IC50 worked out at 21.3 µM.

Regarding `O=c1cc(-c2ccc(O)cc2)oc2cc(O)cc(O)c12` [APIGENIN], the IC50 is more than 50 µM.

On to `COc1cc2oc(-c3ccc(O)cc3)cc(=O)c2c(O)c1Oc1ccc(-c2cc(=O)c3c(O)cc(O)cc3o2)cc1`, for which the IC50 is more than 50 µM.

Consider `COc1cc(O)c2c(=O)cc(-c3ccc(OC)c(-c4c(OC)cc(O)c5c(=O)cc(-c6ccc(O)cc6)oc45)c3)oc2c1`, for which the IC50 was more than 50 µM.

Consider `COc1cc2oc(-c3ccc(O)cc3)cc(=O)c2c(O)c1-c1c(OC)cc(O)c2c(=O)cc(-c3ccc(O)cc3)oc12`, for which the IC50 stood at 32.8 µM. Turning to `COc1ccc(-c2cc(=O)c3c(O)cc(OC)c(-c4c(OC)cc5oc(-c6ccc(O)cc6)cc(=O)c5c4O)c3o2)cc1`, the IC50 is more than 50 µM. Regarding `COc1ccc(-c2cc(=O)c3c(O)cc(OC)c(-c4c(OC)cc(O)c5c(=O)cc(-c6ccc(O)cc6)oc45)c3o2)cc1`, the IC50 was 45.6 µM. For `COc1cc(O)c2c(=O)cc(-c3ccc(O)cc3)oc2c1-c1cc(-c2cc(=O)c3c(O)cc(O)cc3o2)ccc1O` [SOTETSUFLAVONE], the IC50 is more than 50 µM. The same measure, in the same setting: under `COc1ccc(-c2cc(=O)c3c(O)cc(O)c(-c4cc(-c5cc(=O)c6c(O)cc(OC)cc6o5)ccc4OC)c3o2)cc1` [SCIADOPITISIN] stands more than 50 µM. Turning to `COc1ccc(-c2cc(=O)c3c(O)cc(O)c(-c4cc(-c5cc(=O)c6c(O)cc(O)cc6o5)ccc4OC)c3o2)cc1` [ISOGINKGETIN], the IC50 is 10.1 µM.

Broadly, the inhibition is the share of the control response that was lost under treatment. One may read the IC50 as the concentration needed to halve the response being measured.
